Test results: US20160115539A1, “USE OF A SLC MAMMALIAN SKIN TRANSPORTER” (GALDERMA RESEARCH & DEVELOPMENT, priority 2013, published 2016)

Tests used:
Assay type in all cases: cell-based
SLC47A1 (MATE1) [1] = test: Effect of Rifampicin on SLC47A1 mRNA expression in human hepatocytes in primary culture (real time PCR); conditions: Rifampicin 20 μM, 72 hours
Method: (§1) After homogenization of skin samples or hepatocytes in lysis buffer (Promega), total RNA was isolated using SV Total RNA Isolation System (Promega), in accordance with the instructions provided by the constructor. RNA concentrations were quantified spectrophotometrically. Quantification of mRNA expression of human SLC transporters was performed using TaqMan PCR techniques (Applied Biosystems). Experiments were carried out on a 7500 real time PCR System (Applied Biosystems) using Assay-on-Demand gene expression products. For this, 500 ng of total RNA were reverse-transcribed using the High Capacity RNA to cDNA Master Mix kit (Applied Biosystems).

SLC47A1 (MATE1) [2] = test: Effect of Rifampicin on SLC47A1 mRNA expression in human skin organoculture (real time PCR); conditions: Rifampicin 20 μM, 72 hours, p≦0.05
Method: (§2) Fresh human skin samples from 3 different donors were used and maintained in organoculture. Four skin biopsies of 6 mm diameter were used per well of 6-well plate, filled with long term skin culture medium (Biopredic, France) (FIG. 1). Skin samples were treated with 20 μM Rifampicin during 3 days. In a separate experiment, skin samples were exposed during one hour every day during 3 days to UV lights via a solar simulator (UVA 110 W/m^2; UVB 20 W/m^2). Untreated skin samples were used as control. The culture plates were kept in a cell culture incubator set at 37° C., 5% CO2 and saturated hygrometry. At the end of treatment period gene expression of SLC transporters was measured as described above.
as §1

SLC47A2 (MATE2) = test: Effect of Rifampicin on SLC47A2 mRNA expression in human skin organoculture (real time PCR); conditions: Rifampicin 20 μM, 72 hours
Method: as §2, §1

## CO[C@H]1/C=C/O[C@@]2(C)Oc3c(C)c(O)c4c(O)c(c(/C=N/N5CCN(C)CC5)c(O)c4c3C2=O)NC(=O)/C(C)=C\C=C\[C@H](C)[C@H](O)[C@@H](C)[C@@H](O)[C@@H](C)[C@H](OC(C)=O)[C@@H]1C [Rifampicin]
SLC47A1 (MATE1) [1]
  decrease in expression of SLC47A1 (MATE1): 48%
SLC47A1 (MATE1) [2]
  decrease in MATE1 expression: 44%
SLC47A2 (MATE2)
  decrease in MATE2 expression: 30%
